≈ marks a conversion by molar mass, not a printed value. Counter-ions that a name gives are not always drawn. Starred links: 1 amine or outer side, 2 acyl side, 3 side chain; linkers in the order of their positions; H or OH if unused. Non-standard residues stand in square brackets, D forms with d. Residues, ends and D or L forms follow the SMILES beside them. X1 = C[C@@H](N[*:1])P(=O)(O)CCC(=O)[*:2]
How the values were obtained:
Staphylococcus aureus [1] = assay: Antibacterial activity against Staphylococcus aureus; assay type: functional
Sortase A [2] = target: T1, Sortase A (Staphylococcus aureus, UniProt Q9S446); assay: Inhibition of C-terminal 6His-tagged recombinant Staphylococcus aureus SrtA with 1 to 59 residues truncated from N-terminus expressed in Escherichia coli BL21 (DE3) using dabcyl-QALPETGEE-edans as substrate preincubated for 1 hr followed by substrate addition and measured for 1 hr by FRET assay
T1 sequence (Q9S446 whole entry): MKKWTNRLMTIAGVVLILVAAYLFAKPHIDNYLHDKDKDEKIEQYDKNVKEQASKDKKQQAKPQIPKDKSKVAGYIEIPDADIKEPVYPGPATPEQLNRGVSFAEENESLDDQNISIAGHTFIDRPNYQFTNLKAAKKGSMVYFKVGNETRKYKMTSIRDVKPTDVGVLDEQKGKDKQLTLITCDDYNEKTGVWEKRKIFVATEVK

Staphylococcus aureus [3] = assay: Inhibition of biofilm formation in Staphylococcus aureus ATCC 29213 incubated for 24 hrs by crystal violet staining based analysis; assay type: functional, organism-based; settings: ATCC 29213, 24 h
[4] = target: T2, Sortase A (Staphylococcus aureus) (UniProt Q9S446); assay: Binding affinity to Staphylococcus aureus SrtA assessed as kinact/ki
T2 sequence (whole entry): T1 sequence (Q9S446 whole entry)

Sortase A [5] = target: T1, Sortase A; assay: Inhibition of Staphylococcus aureus SrtA using EDANS-Dabcyl as substrate by FRET assay
Sortase A [6] = target: T1, Sortase A; assay: Inhibition of recombinant Staphylococcus aureus SrtA using DabcylQALPETGEE-Edans as substrate by FRET assay
Staphylococcus aureus [7] = assay: Antibacterial activity against Staphylococcus aureus Newman assessed as inhibition of bacterial growth by spectrophotometer method; assay type: functional
Sortase A [8] = target: T1, Sortase A; assay: Inhibition of Staphylococcus aureus SrtA
Sortase A [9] = target: T1, Sortase A; assay: Inhibition of Staphylococcus aureus SrtA with 24 residues truncated from N-terminus using Abz-LPATG-Dap as substrate
Sortase A [10] = target: T1, Sortase A; assay: Inhibition of recombinant Staphylococcus aureus ATCC 6538p SrtA expressed in Escherichia coli TOP10 using Dabcyl-QALPETGEE-Edans as substrate incubated for 1 hr by fluorometric analysis
Staphylococcus aureus [11] = assay: Antibacterial activity against Staphylococcus aureus ATCC 6538p assessed as inhibition of bacterial growth incubated overnight by spectrophotometer; assay type: functional
Sortase A [12] = target: T1, Sortase A; assay: Inhibition of recombinant Staphylococcus aureus SrtA using Abz-LPETG-Dap(Dnp) as substrate
Sortase A [13] = target: T1, Sortase A; assay: Inhibition of Staphylococcus aureus SrtA catalytic domain (60 to 206 residues) using Abz-LPETGDap(Dnp)-NH2 as substrate preincubated for 1 hr followed by substrate addition and measured immediately by FRET assay
Staphylococcus aureus [14] = assay: Antibacterial activity against Staphylococcus aureus SA113 by microbroth dilution assay; assay type: functional
Sortase A [15] = target: T1, Sortase A; assay: Inhibition of Staphylococcus aureus SrtA (60 to 206 residues) using Abz-LPETG-Dap(Dnp)-NH2 as substrate incubated for 1 hr by FRET assay
Sortase A [16] = target: T1, Sortase A; assay: Inhibition of recombinant Staphylococcus aureus SrtA deltaN59 using Dabcyl-[…]-Edans as substrate preincubated for 20 mins followed by substrate addition and measured after 1 hr by fluorescence based analysis
[17] = target: T2, Sortase A (Staphylococcus aureus); assay: Inhibition of Staphylococcus aureus SrtA expressed in Escherichia coli BL21 (DE3) cells using Abz-LPETG-Dap(Dnp) as substrate assessed as kinact/ki

## COc1cc(/C=C/C(=O)CC(=O)/C=C/c2ccc(O)c(OC)c2)ccc1O [CURCUMIN]
Staphylococcus aureus [1]
  MIC: > 543 µM

## CCn1nc(C)cc1C(=O)/C(=N/Nc1ccc(Cl)c(Cl)c1)C(=O)O
Sortase A [2]
  IC50: > 200 µM

## CCOC(=O)/C(=N\Nc1ccc(Cl)c(Cl)c1)C(=O)c1cc(C)nn1CC
Sortase A [2]
  IC50: > 200 µM
Staphylococcus aureus [3]
  IC50: 1.7 µM

## O=c1cc(CO)oc(C(Nc2ccccn2)c2ccc(F)cc2)c1O (stereo not drawn)
Staphylococcus aureus [1]
  MIC: > 1580 µM
[4]
  Ratio: 1.4 10^3/M/min

## O=C(/C=C/c1ccc(O)cc1)CC(=O)/C=C/c1ccc(O)cc1 [BISDEMETHOXYCURCUMIN]
Sortase A [5]
  IC50: 103 µM
Staphylococcus aureus [1]
  MIC: > 543 µM

## COc1ccc2cc3[n+](cc2c1OC)CCc1cc2c(cc1-3)OCO2 [BERBERINE SULFATE]
Sortase A [6]
  IC50: 26.5 µM

## O=C(NCCSSCCNC(=O)/C(Cc1ccc(O)c(Br)c1)=N/O)/C(Cc1ccc(O)c(Br)c1)=N/O [PSAMMAPLIN A]
Sortase A [5]
  IC50: 47.4 µM
Staphylococcus aureus [7]
  MIC: > 200 µg/mL

## COc1cc(/C=C/C(=O)O)ccc1O [FERULATE]
Staphylococcus aureus [1]
  MIC: > 5750 µM
Sortase A [8]
  IC50: 1320 µM

## c1cc(-c2nnc3sc(-c4ccc5[nH]cnc5c4)nn23)ccn1
Sortase A [9]
  IC50: 17 µM

## Clc1ccccc1-c1nn2c(-c3ccncc3)nnc2s1
Sortase A [9]
  IC50: 37.7 µM

## COc1cc2c(cc1O)OC(c1ccccc1)CC2=O (stereo not drawn)
Sortase A [10]
  IC50: 96.1 µM
Staphylococcus aureus [11]
  MIC: > 4700 µM

## CC(C)C[C@H](NC(=O)[C@H](C)NC(=O)[C@@H](N)Cc1ccc(O)cc1)C(=O)N1CCC[C@H]1C(=O)N[C@@H](CCC(=O)O)C(=O)N[C@H](C)P(=O)(O)CCC(=O)N[C@@H](CCC(=O)O)C(=O)N[C@@H](CCC(=O)O)C(N)=O (H-YALPE[X1]EE-NH2)
Sortase A [12]
  IC50: 10000 µM

## CC(=O)/C(=N/Nc1ccc(Cl)c(Cl)c1)C(=O)O
Staphylococcus aureus [1]
  MIC: > 270 µM
Sortase A [2]
  IC50: 50 µM

## O=c1c(OCCCO)c(SSc2cnn(-c3ccccc3)c(=O)c2OCCCO)cnn1-c1ccccc1
Sortase A [13]
  IC50: 0.84 µM

## COc1ccc(-c2cc(=O)c3c(O)cc(O)cc3o2)cc1 [ACACETIN]
Staphylococcus aureus [1]
  MIC: > 3600 µM
Sortase A [8]
  IC50: 128 µM

## CCSSc1ccccc1C(=O)NCC(=O)NC12CC3CC(CC(C3)C1)C2
[4]
  Ratio: 5.79 10^4/M/min
Staphylococcus aureus [14]
  MIC: 7.74 µM (≈ 3.13 µg/mL)

## O=C(O)COc1ccccc1C1Nc2cccc3cccc(c23)N1
Sortase A [15]
  IC50: 47.2 µM

## COc1ccc(-c2coc3cc(O)ccc3c2=O)cc1 [FORMONONETIN]
Sortase A [10]
  IC50: 74.9 µM
Staphylococcus aureus [11]
  MIC: > 478 µM

## CCOc1c(SSc2cnn(-c3cccc(C(=N)N)c3)c(=O)c2OCC)cnn(-c2cccc(C(=N)N)c2)c1=O
Sortase A [13]
  IC50: 0.54 µM
[4]
  Ratio: 3.6 10^4/M/min

## COc1ccc(C(Nc2ccccn2)c2oc(CO)cc(=O)c2O)cc1 (stereo not drawn)
Staphylococcus aureus [1]
  MIC: > 1440 µM
[4]
  Ratio: 1.8 10^3/M/min

## CC(C)C[C@H](N)C(=O)N1CCC[C@H]1C(=O)N[C@@H](CCCNC(=N)N)C(=O)N[C@@H](CC(=O)O)C(=O)N[C@@H](C)C(=O)O (H-LPRDA-OH)
Sortase A [16]
  IC50: 10.6 µM

## C=CS(=O)(=O)c1ccccc1
[17]
  Ratio: 20.1 M⁻¹ min⁻¹

## O=c1cc(CO)oc(C(Nc2ccccn2)c2cccc(F)c2)c1O (stereo not drawn)
Staphylococcus aureus [1]
  MIC: > 1580 µM
[4]
  Ratio: 2.4 10^3/M/min

## CCSSc1ccccc1C(=O)NCC(=O)N(C1CCCCC1)C1CCCCC1
[4]
  Ratio: 6.39 10^4/M/min

## CC(=O)/C(=N/Nc1ccc([N+](=O)[O-])cc1)C(=O)O
Staphylococcus aureus [1]
  MIC: > 270 µM
Sortase A [2]
  IC50: 57 µM

## O=c1c(O)c(-c2cc(O)c(O)c(O)c2)oc2cc(O)cc(O)c12 [MYRICETIN]
Sortase A [10]
  IC50: 44 µM

## O=[N+]([O-])c1ccc(C2Nc3cccc4cccc(c34)N2)cc1
Sortase A [15]
  IC50: 80 µM

## CCSSc1ccccc1C(=O)N[C@H](CC(=O)O)C(=O)Nc1cccc(Oc2ccccc2)c1
[4]
  Ratio: 8.21 10^4/M/min

## C[C@@H]1O[C@@H](OC2=C(c3ccc(O)c(O)c3)Oc3cc(O)cc(O)c3[C@@H]2O)[C@H](O)[C@H](O)[C@H]1O
Sortase A [5]
  IC50: 71.8 µM

From ChEMBL document CHEMBL5226340, “Chemical Biology of Sortase A Inhibition: A Gateway to Anti-infective Therapeutic Agents” (J Med Chem, 2021)
